Laboratory results from ChEMBL document CHEMBL3822423 (J Med Chem, 2016).
Converted amounts (≈) assume the structure as drawn. The source made the active and inactive calls. No cut-off for these calls is given here.

Assays:
Format in all cases: functional
Bacillus spizizenii = experiment: Antibacterial activity against Bacillus subtilis ATCC 6633 after 18 to 24 hrs
Micrococcus luteus = experiment: Antibacterial activity against Micrococcus luteus ATCC 4698 after 18 to 24 hrs; settings: NCTC 2665
Bacillus = experiment: Antibacterial activity against Bacillus proteus ATCC 13315 after 18 to 24 hrs
Staphylococcus aureus [1] = experiment: Antibacterial activity against methicillin-resistant Staphylococcus aureus N315 after 18 to 24 hrs
Pseudomonas aeruginosa = experiment: Antibacterial activity against Pseudomonas aeruginosa ATCC 9027 after 18 to 24 hrs
[2] = (§1) Antibacterial activity against Eberthella typhosa ATCC 14028 after 18 to 24 hrs
Escherichia coli = experiment: Antibacterial activity against Escherichia coli ATCC 25922 after 18 to 24 hrs
Staphylococcus aureus [3] = experiment: Antibacterial activity against Staphylococcus aureus ATCC 25923 after 18 to 24 hrs
Eberthella typhosa = experiment: as §1

Compound | MIC (Bacillus spizizenii) | MIC (Micrococcus luteus) | MIC (Bacillus) | MIC (Staphylococcus aureus [1]) | MIC (Pseudomonas aeruginosa) [µg/mL] | MIC [2] [µg/mL] | MIC (Escherichia coli) [µg/mL] | MIC (Staphylococcus aureus [3]) | MIC (Eberthella typhosa)
CCn1cc(-c2csc(N)n2)c(=O)c2cc(F)c(N3CCN(C(=O)OC(C)(C)C)CC3)cc21 | 42.7 µg/mL (≈ 90.2 µM) | 32 µg/mL (≈ 67.6 µM) | 2.6 µg/mL (≈ 5.49 µM) | 10.7 µg/mL (≈ 22.6 µM) | 8 (≈ 16.9 µM) | 5.3 (≈ 11.2 µM) | 10.7 (≈ 22.6 µM) | 64 µg/mL (≈ 135 µM) | 
CCn1cc(-c2csc(N)n2)c(=O)c2cc(N3CCOCC3)c(Cl)cc21 | 255 µg/mL (≈ 653 µM) | 128 µg/mL (≈ 327 µM) | inactive | 255 µg/mL (≈ 653 µM) | 170 (≈ 435 µM) | 95.7 (≈ 245 µM) | 128 (≈ 327 µM) | 0.8 µg/mL (≈ 2.05 µM) | 
CCn1cc(-c2csc(N)n2)c(=O)c2ccc(C(F)(F)F)cc21 | 63.9 µg/mL (≈ 188 µM) | inactive | 13.3 µg/mL (≈ 39.2 µM) | 53.2 µg/mL (≈ 157 µM) | 13.3 (≈ 39.2 µM) | 1.7 (≈ 5.01 µM) | 5.3 (≈ 15.6 µM) | 128 µg/mL (≈ 377 µM) | 
O=C(N[C@H](CO)[C@H](O)c1ccc([N+](=O)[O-])cc1)C(Cl)Cl [CHLORAMPHENICOL] | 26.6 µg/mL (≈ 82.3 µM) | 13.3 µg/mL (≈ 41.2 µM) | 32 µg/mL (≈ 99 µM) | 21.3 µg/mL (≈ 65.9 µM) | 32 (≈ 99 µM) | 26.6 (≈ 82.3 µM) | 13.8 (≈ 42.7 µM) | 16 µg/mL (≈ 49.5 µM) | 
CCn1cc(-c2csc(N)n2)c(=O)c2cc(F)c(N3CCOCC3)cc21 | 18.7 µg/mL (≈ 49.9 µM) | 13.3 µg/mL (≈ 35.5 µM) | 1.7 µg/mL (≈ 4.54 µM) | 32 µg/mL (≈ 85.5 µM) | 10.7 (≈ 28.6 µM) | 14.7 (≈ 39.3 µM) | 6 (≈ 16 µM) | 0.8 µg/mL (≈ 2.14 µM) | 
CCn1cc(-c2csc(N)n2)c(=O)c2cc(F)ccc21 | 3.3 µg/mL (≈ 11.4 µM) | 18.7 µg/mL (≈ 64.6 µM) | 10.7 µg/mL (≈ 37 µM) | inactive | 13.3 (≈ 46 µM) | 21.3 (≈ 73.6 µM) | 24 (≈ 82.9 µM) | 128 µg/mL (≈ 442 µM) | 
CCn1cc(C(C)=O)c(=O)c2cc(F)c(N3CCOCC3)cc21 | inactive | 128 µg/mL (≈ 402 µM) | 2.7 µg/mL (≈ 8.48 µM) | 256 µg/mL (≈ 804 µM) | 256 (≈ 804 µM) | 2.3 (≈ 7.22 µM) | 256 (≈ 804 µM) | 53.3 µg/mL (≈ 167 µM) | 
CCn1cc(C(C)=O)c(=O)c2cc(F)c(N3CCCC3)cc21 | 244 µg/mL (≈ 809 µM) | 244 µg/mL (≈ 808 µM) | 33.1 µg/mL (≈ 109 µM) | 50.9 µg/mL (≈ 168 µM) | 12.7 (≈ 42 µM) | 122 (≈ 404 µM) | 43.3 (≈ 143 µM) | 5.1 µg/mL (≈ 16.9 µM) | 
CCn1cc(-c2csc(N)n2)c(=O)c2cc(N3CCN(C(=O)OC(C)(C)C)CC3)c(Cl)cc21 | 21.3 µg/mL (≈ 43.5 µM) | 53.2 µg/mL (≈ 109 µM) | 32 µg/mL (≈ 65.3 µM) | 32 µg/mL (≈ 65.3 µM) | 8 (≈ 16.3 µM) |  | 10.7 (≈ 21.8 µM) | 128 µg/mL (≈ 261 µM) | inactive
CCn1cc(-c2csc(N)n2)c(=O)c2cc(F)c(N3CCNCC3)cc21 | 10.7 µg/mL (≈ 28.7 µM) | 64.2 µg/mL (≈ 172 µM) | 2 µg/mL (≈ 5.36 µM) | 32.1 µg/mL (≈ 86 µM) | 4 (≈ 10.7 µM) | 10.7 (≈ 28.7 µM) | 16 (≈ 42.8 µM) | 16 µg/mL (≈ 42.8 µM) | 
CCn1cc(-c2csc(N)n2)c(=O)c2cc(F)c(Cl)cc21 | 10.6 µg/mL (≈ 32.7 µM) | 26.6 µg/mL (≈ 82.2 µM) | 3.3 µg/mL (≈ 10.2 µM) | 8 µg/mL (≈ 24.7 µM) | 1.6 (≈ 4.94 µM) | 2.6 (≈ 8.03 µM) | 6.7 (≈ 20.7 µM) | inactive | 
CCn1cc(C(C)=O)c(=O)c2cc(N3CCCCC3)c(Cl)cc21 | 35.4 µg/mL (≈ 106 µM) | 37.3 µg/mL (≈ 112 µM) | 171 µg/mL (≈ 513 µM) | 128 µg/mL (≈ 385 µM) | 42.7 (≈ 128 µM) |  | 13.3 (≈ 40 µM) | 37.3 µg/mL (≈ 112 µM) | inactive
